Test results as given in patent publication US11173145B2, “Compounds useful as inhibitors of indoleamine 2,3-dioxygenase and/or tryptophan dioxygenase” (Board of Regents, The University of Texas System, priority 2017, dated 2021).

Experiments:
IDO1 = molecular target: T1, IDO1 (Homo sapiens, UniProt P14902); experiment: IDO1 cell-based assay (HeLa cells, IFNgamma-induced, N-formylkynurenine/L-tryptophan by RFMS); conditions: 10 ng/mL IFNgamma, 24 hours
T1 construct: endogenous in cells; host or cells: HeLa cells (ATCC), IFNgamma-induced
T1 sequence (P14902 whole entry): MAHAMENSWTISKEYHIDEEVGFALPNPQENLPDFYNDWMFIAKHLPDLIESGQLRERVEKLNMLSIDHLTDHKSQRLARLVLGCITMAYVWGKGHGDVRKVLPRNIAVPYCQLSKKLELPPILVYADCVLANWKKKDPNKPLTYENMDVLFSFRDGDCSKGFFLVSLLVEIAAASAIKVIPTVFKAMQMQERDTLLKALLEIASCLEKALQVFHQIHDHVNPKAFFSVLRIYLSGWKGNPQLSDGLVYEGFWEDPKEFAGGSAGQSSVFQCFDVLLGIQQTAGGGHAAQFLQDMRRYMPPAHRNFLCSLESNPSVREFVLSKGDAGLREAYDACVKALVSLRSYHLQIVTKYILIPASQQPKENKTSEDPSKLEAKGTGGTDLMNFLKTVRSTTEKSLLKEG
In short: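 N-formylkynurenine and tryptophan peak areas in media measured by RFMS (C18, isocratic, d-Trp standard), giving IC50 values by regression. Source: HeLa cells incubated 24 h with IFNgamma (10 ng/mL) plus test compound at 0.5% DMSO; parallel CellTiter-Glo viability read.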

mouse IDO1 = molecular target: T2, mouse IDO1 (Mus musculus, UniProt P28776); experiment: Mouse IDO1 cell-based assay (PANC02 cells, mouse IFNgamma-induced, N-formylkynurenine/L-tryptophan by RFMS); conditions: 30 ng/mL mouse IFNgamma, 48 hours
T2 construct: The murine PANC02 pancreatic ductal adenocarcinoma cell line was routinely maintained in DMEM media; endogenous in cells; host or cells: PANC02 murine pancreatic ductal adenocarcinoma cells, induced with mouse IFNgamma
T2 sequence (P28776 whole entry): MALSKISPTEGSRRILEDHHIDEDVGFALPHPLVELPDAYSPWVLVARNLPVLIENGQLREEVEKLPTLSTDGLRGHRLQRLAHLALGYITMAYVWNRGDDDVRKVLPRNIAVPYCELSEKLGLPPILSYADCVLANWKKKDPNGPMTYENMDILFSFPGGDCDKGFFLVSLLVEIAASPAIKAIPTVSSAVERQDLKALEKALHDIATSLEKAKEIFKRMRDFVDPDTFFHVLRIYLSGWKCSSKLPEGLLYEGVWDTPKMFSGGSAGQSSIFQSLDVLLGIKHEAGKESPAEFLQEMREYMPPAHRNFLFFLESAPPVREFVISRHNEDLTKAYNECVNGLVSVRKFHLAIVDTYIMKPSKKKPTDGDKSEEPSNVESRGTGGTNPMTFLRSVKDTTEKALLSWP
Description: The murine PANC02 pancreatic ductal adenocarcinoma cell line was routinely maintained in DMEM media containing 10% FBS. Cells (3,000/well) were seeded onto a 384 well plate in 50 μl of media and incubated at 37° C., 5% CO2 overnight. Cell media was aspirated, fresh media containing 30 ng/mL mouse IFNgamma (Gibco Life Technologies, cat #PMC4031) was added, and cells were incubated in absence or presence of various concentrations of compounds (final 0.5% DMSO) for 48 hours at 37° C., 5% CO2. Aliquots of the cell conditioned media was removed from the cell plate, and mixed with equal volume of 200 mM ZnSO4 to precipitate media containing protein. Two volumes of acetonitrile were added by mixing, and samples were then centrifuged at 2250G for 20 minutes at 4° C. Aliquots of the supernatant were diluted 1:10 in 0.1% formic acid containing 3 μM of deuterated Tryptophan as an internal standard.
Samples were analyzed via RFMS to quantify N-Formyl Kynurenine (AUC) and L-tryptophan (AUC). A C18 cartridge was used with mobile phases of 0.1% Formic Acid and 80% ACN/0.1% Formic Acid under isocratic conditions. Dose-response curves were analyzed using IC50 regression curve fitting (GeneData Screener). Curves were plotted as percent of control and normalized by high controls without inhibitor (100%), and low controls (0%) containing 1 μM of epacadostat. Cell viability was also assessed using the Cell Titer Glo Kit (Promega) following manufacture recommendation.

SMILES | IC50 (IDO1) [nM] | IC50 (mouse IDO1) [nM]
CCC(NC(=O)c1ccc(Cl)cc1)[C@H]1[C@@H]2C[C@@H](n3ncc4ccc(F)cc43)C[C@@H]21 (stereo partly drawn) [Compound 162, 4-chloro-N-(1-((1R,3s,5S,6r)-3-(6-fluoro-1H-indazol-1-yl)bicyclo[3.1.0]hexan-6-yl)propyl)benzamide] | < 200 | 500 to 2000
CCC(NC(=O)c1ccc(Cl)cc1)[C@H]1[C@@H]2C[C@@H](n3cc4ccc(F)cc4n3)C[C@@H]21 (stereo partly drawn) [Compound 163, 4-chloro-N-(1-((1R,3s,5S,6r)-3-(6-fluoro-2H-indazol-2-yl)bicyclo[3.1.0]hexan-6-yl)propyl)benzamide] | < 200 | < 500
CCC(NC(=O)c1ccc(Cl)cc1)[C@H]1[C@@H]2C[C@@H](NC(=O)c3ccc(OC)cn3)C[C@@H]21 (stereo partly drawn) [Compound 164, N-((1R,3s,5S,6r)-6-(1-(4-chlorobenzamido)propyl)bicyclo[3.1.0]hexan-3-yl)-5-methoxypicolinamide] | 200 to 2000 | 500 to 2000
CCc1cnnn1[C@@H]1C[C@@H]2[C@H](C1)[C@H]2C(CC)NC(=O)c1ccc(Cl)cc1 (stereo partly drawn) [Compound 165, 4-chloro-N-(1-((1R,3s,5S,6r)-3-(5-ethyl-1H-1,2,3-triazol-1-yl)bicyclo[3.1.0]hexan-6-yl)propyl)benzamide] | < 200 | < 500
CCC(NC(=O)c1ccc(Cl)cc1)[C@H]1[C@@H]2C[C@@H](C(C#N)c3ccccc3)C[C@@H]21 (stereo partly drawn) [Compound 166, 4-chloro-N-(1-((1R,3s,5 S,6r)-3-(cyano(phenyl)methyl)bicyclo[3.1.0]hexan-6-yl)propyl) benzamide] | < 200 | < 500
CCc1cn([C@@H]2C[C@@H]3[C@H](C2)[C@H]3C(CC)NC(=O)c2ccc(Cl)cc2)nn1 (stereo partly drawn) [Compound 167, 4-chloro-N-(1-((1R,3s,5S,6r)-3-(4-ethyl-1H-1,2,3-triazol-1-yl)bicyclo[3.1.0]hexan-6-yl)propyl)benzamide] | < 200 | < 500
O=C(NC(CO)[C@H]1[C@@H]2C[C@@H](n3cc(C4CC4)nn3)C[C@@H]21)c1ccc(Cl)cc1 (stereo partly drawn) [Compound 168, 4-chloro-N-(1-((1R,3s,5S,6r)-3-(4-cyclopropyl-1H-1,2,3-triazol-1-yl)bicyclo[3.1.0]hexan-6-yl)-2-hydroxyethyl)benzamide] | 2000 to 5000 | > 5000
CCC(NC(=O)c1ccc(Cl)cc1)[C@H]1[C@@H]2C[C@@H](NC(=O)c3ncc(F)cc3F)C[C@@H]21 (stereo partly drawn) [Compound 171, N-((1R,3s,5S,6r)-6-(1-(4-chlorobenzamido)propyl)bicyclo[3.1.0]hexan-3-yl)-3,5-difluoropicolinamide] | < 200 | 500 to 2000
CCC(NC(=O)c1ccc(Cl)cc1)[C@H]1[C@@H]2C[C@@H](N3Cc4ccccc4C3=O)C[C@@H]21 (stereo partly drawn) [Compound 175, 4-chloro-N-(1-((1R,3s,5S,6r)-3-(1-oxoisoindolin-2-yl)bicyclo[3.1.0]hexan-6-yl)propyl)benzamide] | < 200 | 500 to 2000
CCC(NC(=O)c1ccc(Cl)cc1)[C@H]1[C@@H]2C[C@@H](NC(=O)c3cn[nH]c3)C[C@@H]21 (stereo partly drawn) [Compound 177, N-((1R,3s,5S,6r)-6-(1-(4-chlorobenzamido)propyl)bicyclo[3.1.0]hexan-3-yl)-1H-pyrazole-4-carboxamide] | 200 to 2000 | > 5000
CCC(NC(=O)c1ccc(Cl)cc1)[C@H]1[C@@H]2C[C@@H](n3nnc4ccc(Br)cc43)C[C@@H]21 (stereo partly drawn) [Compound 178, N-(1-((1R,3s,5S,6r)-3-(6-bromo-1H-benzo[d][1,2,3]triazol-1-yl)bicyclo[3.1.0]hexan-6-yl)propyl)-4-chlorobenzamide] | < 200 | < 500
CCC(NC(=O)c1ccc(Cl)cc1)[C@H]1[C@@H]2C[C@@H](n3nc4ccc(Br)cc4n3)C[C@@H]21 (stereo partly drawn) [Compound 179, N-(1-((1R,3s,5S,6r)-3-(5-bromo-2H-benzo[d][1,2,3]triazol-2-yl)bicyclo[3.1.0]hexan-6-yl)propyl)-4-chlorobenzamide] | < 200 | 2000 to 5000
CCC(NC(=O)c1ccc(Cl)cc1)[C@H]1[C@@H]2C[C@@H](n3c(=O)[nH]c4ccccc43)C[C@@H]21 (stereo partly drawn) [Compound 180, 4-chloro-N-(1-((1R,3s,5S,6r)-3-(2-oxo-2,3-dihydro-1H-benzo[d]imidazol-1-yl)bicyclo[3.1.0]hexan-6-yl)propyl)benzamide] | 200 to 2000 | 500 to 2000
CCC(NC(=O)c1ccc(Cl)cc1)[C@H]1[C@@H]2C[C@@H](n3c(=O)n(C)c4ccccc43)C[C@@H]21 (stereo partly drawn) [Compound 181, 4-chloro-N-(1-((1R,3s,5S,6r)-3-(3-methyl-2-oxo-2,3-dihydro-1H-benzo[d]imidazol-1-yl)bicyclo[3.1.0]hexan-6-yl)propyl)benzamide] | < 200 | < 500
CCC(NC(=O)c1ccc(Cl)cc1)[C@H]1[C@@H]2C[C@@H](n3cccc4ncnc3-4)C[C@@H]21 (stereo partly drawn) [Compound 182, N-(1-((1R,3s,5S,6r)-3-(4H-imidazo[4,5-b]pyridin-4-yl)bicyclo[3.1.0]hexan-6-yl)propyl)-4-chlorobenzamide] | 200 to 2000 | > 5000
CCC(NC(=O)c1ccc(Cl)cc1)[C@H]1[C@@H]2C[C@@H](N3CCOC3=O)C[C@@H]21 (stereo partly drawn) [Compound 185, 4-chloro-N-(1-((1R,3s,5S,6r)-3-(2-oxooxazolidin-3-yl)bicyclo[3.1.0]hexan-6-yl)propyl)benzamide] | 200 to 2000 | 2000 to 5000
CCC(NC(=O)c1ccc(Cl)cc1)[C@H]1[C@@H]2C[C@H](n3cc(CO)nn3)C[C@@H]21 (stereo partly drawn) [Compound 187, 4-chloro-N-(1-((1R,3r,5S,6r)-3-(4-(hydroxymethyl)-1H-1,2,3-triazol-1-yl)bicyclo[3.1.0]hexan-6-yl)propyl)benzamide] | 200 to 2000 | 2000 to 5000
CCC(NC(=O)c1ccc(Cl)cc1)[C@H]1[C@@H]2C[C@@H](NC(=O)c3ncccc3F)C[C@@H]21 (stereo partly drawn) [Compound 188, N-((1R,3s,5S,6r)-6-(1-(4-chlorobenzamido)propyl)bicyclo[3.1.0]hexan-3-yl)-3-fluoropicolinamide] | < 200 | 500 to 2000
CCC(NC(=O)c1ccc(Cl)cc1)[C@H]1[C@@H]2C[C@@H](NC(=O)N(C)c3ccccn3)C[C@@H]21 (stereo partly drawn) [Compound 189, 4-chloro-N-(1-((1R,3s, 5S, 6r)-3-(3-methyl-3-(pyridin-2-yl)ureido)bicyclo[3.1.0]hexan-6-yl)propyl)benzamide] | < 200 | 500 to 2000
CCOC(=O)C(N[C@@H]1C[C@@H]2[C@H](C1)[C@H]2C(CC)NC(=O)c1ccc(Cl)cc1)c1ccccc1 (stereo partly drawn) [Compound 190, ethyl 2-(((1R,3s,5S,6r)-6-(1-(4-chlorobenzamido)propyl)bicyclo[3.1.0]hexan-3-yl)amino)-2-phenylacetate] | 200 to 2000 | > 5000
CCC(NC(=O)c1ccc(Cl)cc1)[C@H]1[C@@H]2C[C@H](n3nncc3C3CC3)C[C@@H]21 (stereo partly drawn) [Compound 191, 4-chloro-N-(1-((1R,3r,5S,6r)-3-(5-cyclopropyl-1H-1,2,3-triazol-1-yl)bicyclo[3.1.0]hexan-6-yl)propyl)benzamide] | 200 to 2000 | 500 to 2000
CCC(NC(=O)c1ccc(Cl)cc1)[C@H]1[C@@H]2C[C@@H](n3c(=O)[nH]c4cc(F)ccc43)C[C@@H]21 (stereo partly drawn) [Compound 192, 4-chloro-N-(1-((1R,3s,5S,6r)-3-(5-fluoro-2-oxo-2,3-dihydro-1H-benzo[d]imidazol-1-yl)bicyclo[3.1.0]hexan-6-yl)propyl)benzamide] | 200 to 2000 | 500 to 2000
CCC(NC(=O)c1ccc(Cl)cc1)[C@H]1[C@@H]2C[C@@H](Oc3nc4cc(F)ccc4[nH]3)C[C@@H]21 (stereo partly drawn) [Compound 193, 4-chloro-N-(1-((1R,3s,5S,6r)-3-((6-fluoro-1H-benzo[d]imidazol-2-yl)oxy)bicyclo[3.1.0]hexan-6-yl)propyl)benzamide] | 200 to 2000 | 500 to 2000
CCC(NC(=O)c1ccc(Cl)cc1)[C@H]1[C@@H]2C[C@@H](n3ccc4ncnc-4c3)C[C@@H]21 (stereo partly drawn) [Compound 198, N-(1-((1R,3s,5S,6r)-3-(5H-imidazo[4,5-c]pyridin-5-yl)bicyclo[3.1.0]hexan-6-yl)propyl)-4-chlorobenzamide] | < 200 | 500 to 2000
CCC(NC(=O)c1ccc(Cl)cc1)[C@H]1[C@@H]2C[C@@H](n3cnc(-c4ccccc4)c3)C[C@@H]21 (stereo partly drawn) [Compound 200, 4-chloro-N-(1-((1R,3s,5S,6r)-3-(4-phenyl-1H-imidazol-1-yl)bicyclo[3.1.0]hexan-6-yl)propyl)benzamide] | < 200 | 500 to 2000
CCC(NC(=O)c1ccc(Cl)cc1)[C@H]1[C@@H]2C[C@@H](n3ccnc3C)C[C@@H]21 (stereo partly drawn) [Compound 201, 4-chloro-N-(1-((1R,3s,5S,6r)-3-(2-methyl-1H-imidazol-1-yl)bicyclo[3.1.0]hexan-6-yl)propyl)benzamide] | < 200 | 2000 to 5000
